The target of test [1] is cloned human δ opioid receptor (Homo sapiens (Human), UniProt P41143). As to the kind of experiment: [3H]diprenorphine receptor binding, δ opioid receptor. To be noted: inhibition of [3H]diprenorphine binding; Cheng-Prusoff correction of IC50. As for the experimental part:
(§1) IC50 values were obtained by nonlinear analysis of the data using GraphPad Prism version 3.00 for Windows (GraphPad Software, San Diego). Ki values were obtained by Cheng-Prusoff corrections of IC50 values.
(§2) The receptor binding method (DeHaven and DeHaven-Hudkins, 1998) was a modification of the method of Raynor et al. (1994). After dilution in buffer A and homogenization as before, membrane proteins (10-80 μg) in 250 μL were added to mixtures containing test compound and [^3H]diprenorphine (0.5 to 1.0 nM, 40,000 to 50,000 dpm) in 250 μL of buffer A in 96-well deep-well polystyrene titer plates (Beckman). After incubation at room temperature for one hour, the samples were filtered through GF/B filters that had been presoaked in a solution of 0.5% (w/v) polyethylenimine and 0.1% (w/v) bovine serum albumin in water. The filters were rinsed 4 times with 1 mL of cold 50 mM Tris HCl, pH 7.8 and radioactivity remaining on the filters determined by scintillation spectroscopy. Nonspecific binding was determined by the minimum values of the titration curves and was confirmed by separate assay wells containing 10 μM naloxone.
(§3) To determine the equilibrium dissociation constant for the inhibitors (Ki), radioligand bound (cpm) in the presence of various concentrations of test compounds was measured. The concentration to give half-maximal inhibition (EC50) of radioligand binding was determined from a best nonlinear regression fit to the following equation,
(§4) [formula] where Y is the amount of radioligand bound at each concentration of test compound, Bottom is the calculated amount of radioligand bound in the presence of an infinite concentration of test compound, Top is the calculated amount of radioligand bound in the absence of test compound, X is the logarithm of the concentration of test compound, and LogEC50 is the log of the concentration of test compound where the amount of radioligand bound is half-way between Top and Bottom. The nonlinear regression fit was performed using the program Prism® (GraphPad Software, San Diego, Calif.). The Ki values were then determined from the EC50 values by the following equation,
(§5) [formula] where [ligand] is the concentration of radioligand and Kd is the equilibrium dissociation constant for the radioligand.

Test [2] addresses cloned human κ opioid receptor (Homo sapiens (Human), UniProt P41145). As to the kind of experiment: [3H]diprenorphine receptor binding, κ opioid receptor. The following applies: inhibition of [3H]diprenorphine binding; Cheng-Prusoff correction of IC50. As for the experimental part: as §1, §2, §3, §4, §5
Test [3] concerns the target T1, cloned human μ opioid receptor (Homo sapiens (Human), UniProt P35372). The test can be described thus: [3H]diprenorphine receptor binding, μ opioid receptor. The following applies: inhibition of [3H]diprenorphine binding; Cheng-Prusoff correction of IC50. As for the experimental part: as §1, §2, §3, §4, §5
Test [4] addresses T1, cloned human μ opioid receptor. As to the kind of experiment: inhibition of agonist-stimulated [35S]GTPγS binding (in vitro antagonist activity), μ opioid receptor. The following applies: inhibition of loperamide (EC80)-stimulated [35S]GTPγS binding to membranes. In kind it is biochemical. As for the experimental part:
The potencies of the antagonists were assessed by their abilities to inhibit agonist-stimulated [^35S]GTPγS binding to membranes containing the cloned human μ, κ, or δ opioid receptors. The agonists used were loperamide for the μ opioid receptor.
To determine the IC50 value, which was the concentration to give half-maximal inhibition of agonist-stimulated [^35S]GTPγS binding, the amount of [^35S]GTPγS bound in the presence of a fixed concentration of agonist and various concentrations of antagonist was measured. The fixed concentration of agonist was the EC80 for the agonist, which was the concentration to give 80% of the relative maximum stimulation of [^35S]GTPγS binding. The IC50 value was determined from a best nonlinear regression fit of the data to the following equation,
[formula] where Y is the amount of [^35S]GTPγS bound at each concentration of antagonist, Bottom is the calculated amount of [^35S]GTPγS bound in the presence of an infinite concentration of antagonist, Top is the calculated amount of [^35S]GTPγS bound in the absence of added antagonist, X is the logarithm of the concentration of antagonist, and LogIC50 is the logarithm of the concentration of antagonist where the amount of [^35S]GTPγS bound is halfway between Bottom and Top. The nonlinear regression fit was performed using GraphPad Prism® version 3.00 for Windows (GraphPad Software, San Diego, Calif.).
A general note: GTPγS is a poorly hydrolysed GTP analogue; its binding reports G protein activation.

SMILES strings stand for the structures.

Sequence of cloned human κ opioid receptor (P41145 whole entry): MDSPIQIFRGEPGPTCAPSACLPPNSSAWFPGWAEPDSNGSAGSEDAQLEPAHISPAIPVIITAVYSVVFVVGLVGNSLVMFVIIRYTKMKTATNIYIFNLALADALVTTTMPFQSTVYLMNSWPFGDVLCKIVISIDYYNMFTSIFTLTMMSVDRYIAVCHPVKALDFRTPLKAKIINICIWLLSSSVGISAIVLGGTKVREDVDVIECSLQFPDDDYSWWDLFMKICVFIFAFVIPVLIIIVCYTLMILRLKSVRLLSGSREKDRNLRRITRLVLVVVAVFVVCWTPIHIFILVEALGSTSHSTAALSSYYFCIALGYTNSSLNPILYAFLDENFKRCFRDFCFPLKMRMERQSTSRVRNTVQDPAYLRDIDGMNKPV
T1 sequence (P35372 whole entry): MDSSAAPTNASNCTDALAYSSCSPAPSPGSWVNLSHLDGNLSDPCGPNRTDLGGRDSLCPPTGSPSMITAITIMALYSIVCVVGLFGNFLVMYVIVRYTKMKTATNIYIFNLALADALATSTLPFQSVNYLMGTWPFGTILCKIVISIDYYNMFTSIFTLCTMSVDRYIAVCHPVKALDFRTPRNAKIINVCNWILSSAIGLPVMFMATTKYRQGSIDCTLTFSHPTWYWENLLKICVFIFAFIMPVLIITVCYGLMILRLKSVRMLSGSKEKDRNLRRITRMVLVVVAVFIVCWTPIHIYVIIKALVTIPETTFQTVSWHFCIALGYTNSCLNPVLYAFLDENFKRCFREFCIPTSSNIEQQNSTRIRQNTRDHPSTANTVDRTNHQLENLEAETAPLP
Sequence of cloned human δ opioid receptor (P41143 whole entry): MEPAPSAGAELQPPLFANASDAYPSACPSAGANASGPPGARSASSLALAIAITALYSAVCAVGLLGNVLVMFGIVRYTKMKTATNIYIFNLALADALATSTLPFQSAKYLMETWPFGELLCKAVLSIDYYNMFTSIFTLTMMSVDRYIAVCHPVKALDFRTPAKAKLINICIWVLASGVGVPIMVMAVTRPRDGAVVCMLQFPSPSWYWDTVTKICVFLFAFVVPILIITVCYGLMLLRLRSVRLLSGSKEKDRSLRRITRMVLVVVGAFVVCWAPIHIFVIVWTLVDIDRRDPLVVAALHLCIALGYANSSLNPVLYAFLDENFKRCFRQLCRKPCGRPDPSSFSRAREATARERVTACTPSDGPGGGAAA

Take `C[C@H]1CN2C[C@H](c3ccccc3)CC[C@H]2C[C@@]1(C)c1cccc(O)c1` [Example 1, 3-((2R,3R,7S,9αS)-2,3-dimethyl-7-phenyl-octahydro-1H-quinolizin-2-yl)phenol]: the Ki (as a rule, a dissociation constant, usually derived from enzyme kinetics or from competition with a known ligand) was 30 nM in test [1], 8.9 nM in test [2] and 0.57 nM in test [3]. In addition, the IC50 (as a rule, the concentration needed to halve the response being measured) in test [4] is 0.53 nM.

In the case of `C[C@H]1CN2CCN(CCc3ccccc3)C[C@H]2C[C@@]1(C)c1cccc(O)c1` [Example 2B, 3-((7R,8R,9αR)-7,8-dimethyl-2-phenethyl-octahydro-1H-pyrido[1,2-α]pyrazin-8-yl)phenol], the figures for the Ki in test [1] and in test [2] were 242 nM and 112 nM, respectively. The IC50 in test [4] was 21 nM.

As to `C[C@H]1CN2CCN(C(=O)c3ccccc3)C[C@H]2C[C@@]1(C)c1cccc(O)c1` [Example 2C, ((7R,8R,9αR)-8-(3-hydroxyphenyl)-7,8-dimethyl-hexahydro-1H-pyrido[1,2-α]pyrazin-2(6H)-yl)(phenyl)methanone], the Ki in test [1] worked out at 25 nM; in test [2], 190 nM; in test [3], 2 nM. Further, the IC50 in test [4] stood at 21 nM.

As to `C[C@H]1CN2CCN(Cc3ccccc3)C[C@H]2C[C@@]1(C)c1cccc(O)c1` [Example 2D, 3-((7R,8R,9αR)-2-benzyl-7,8-dimethyl-octahydro-1H-pyrido[1,2-α]pyrazin-8-yl)phenol], the Ki in test [1] came to 139 nM; in test [2], 44 nM; in test [3] it was 1.1 nM. The IC50 in test [4] was found to be 11 nM.

Regarding `C[C@H]1CN2C[C@H](c3ccccc3)NC[C@H]2C[C@@]1(C)c1cccc(O)c1` [Example 3A, 3-((3S,7R,8R,9αR)-7,8-dimethyl-3-phenyl-octahydro-1H-pyrido[1,2-α]pyrazin-8-yl)phenol], the figures for the Ki in test [1], in test [2] and in test [3] were 88 nM, 18 nM and 3.6 nM, respectively. Besides, in test [4], the IC50 came out at 12 nM.

Regarding `C[C@H]1CN2C[C@H](c3ccccc3)N(C)C[C@H]2C[C@@]1(C)c1cccc(O)c1` [Example 3B, 3-((3S,7R,8R,9αR)-2,7,8-trimethyl-3-phenyl-octahydro-1H-pyrido[1,2-α]pyrazin-8-yl)phenol], the Ki in test [1] turned out to be 716 nM; in test [2], 12 nM; in test [3], 3.3 nM. Further, in test [4], the IC50 was found to be 26 nM.

For `C[C@H]1CN2C[C@H](Cc3ccccc3)NC[C@H]2C[C@@]1(C)c1cccc(O)c1` [Example 4, 3-((3S,7R,8R,9αR)-3-benzyl-7,8-dimethyl-octahydro-1H-pyrido[1,2-α]pyrazin-8-yl)phenol], the Ki in test [1] turned out to be 36 nM; in test [2], 85 nM; in test [3] it was 8.9 nM. Besides, in test [4], the IC50 was 29 nM.
